From patent US12692269B2, “Therapeutic compounds” (Genentech, Inc., priority 2019, dated 2026)

Tests used:
Assay type in all cases: binding
[1] = target: TEAD4 YAP50-100 (Homo sapiens, UniProt Q15561); assay: TEAD4-YAP HTRF (TR-FRET) protein-protein interaction assay; details: TEAD4, YAP peptide 50-100, HTRF; for EC50: read-out: TEAD4 YAP50-100 HTRF combined: EC50
How it was run: (§1)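 His-tagged TEAD YAP-binding domain (aa 217-447) pre-bound to Eu anti-His antibody, then incubated 30 min with compound before adding biotinylated YAP (aa 50-100) or TAZ (aa 13-57) peptide with streptavidin-XL665. After 60 min at room temperature, TR-FRET 665/615 nm ratio read; IC50/EC50 from four-parameter fit.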

[2] = target: TEAD1 TAZ (amino acids 13-57) (Homo sapiens, UniProt P28347); assay: TEAD1-TAZ HTRF (TR-FRET) protein-protein interaction assay; details: for TEAD1 TAZ HTRF combined: Max % Inhibition: TEAD1, TAZ peptide; for EC50: TEAD1-TAZ HTRF, TR-FRET 665 nm/615 nm, read-out: TEAD1 TAZ HTRF combined: EC50
How it was run: as §1

[3] = target: TEAD3 TAZ (amino acids 13-57) (Homo sapiens, UniProt Q99594); assay: TEAD3-TAZ HTRF (TR-FRET) protein-protein interaction assay; details: for TEAD3 TAZ HTRF combined: Max % Inhibition: TEAD3, TAZ peptide; for EC50: TEAD3-TAZ HTRF, TR-FRET 665 nm/615 nm, read-out: TEAD3 TAZ HTRF combined: EC50
How it was run: as §1

[4] = target: TEAD1 YAP50-100 (Homo sapiens, UniProt P28347); assay: TEAD1-YAP HTRF (TR-FRET) protein-protein interaction assay; details: TEAD1, YAP peptide 50-100, HTRF; for EC50: read-out: TEAD1 YAP50-100 HTRF combined: EC50
How it was run: as §1

[5] = target: TEAD2 TAZ (amino acids 13-57) (Homo sapiens, UniProt Q15562); assay: TEAD2-TAZ HTRF (TR-FRET) protein-protein interaction assay; details: for TEAD2 TAZ HTRF combined: Max % Inhibition: TEAD2, TAZ peptide; for EC50: TEAD2-TAZ HTRF, TR-FRET 665 nm/615 nm, read-out: TEAD2 TAZ HTRF combined: EC50
How it was run: as §1

[6] = target: TEAD4 TAZ (amino acids 13-57) (Homo sapiens, UniProt Q15561); assay: TEAD4-TAZ HTRF (TR-FRET) protein-protein interaction assay; details: for TEAD4 TAZ HTRF combined: Max % Inhibition: TEAD4, TAZ peptide; for EC50: TEAD4-TAZ HTRF, TR-FRET 665 nm/615 nm, read-out: TEAD4 TAZ HTRF combined: EC50
How it was run: as §1

[7] = target: TEAD3 YAP50-100 (Homo sapiens, UniProt Q99594); assay: TEAD3-YAP HTRF (TR-FRET) protein-protein interaction assay; details: TEAD3, YAP peptide 50-100, HTRF; for EC50: read-out: TEAD3 YAP50-100 HTRF combined: EC50
How it was run: as §1

[8] = target: TEAD2 YAP50-100 (Homo sapiens, UniProt Q15562); assay: TEAD2-YAP HTRF (TR-FRET) protein-protein interaction assay; details: TEAD2, YAP peptide 50-100, HTRF; for EC50: read-out: TEAD2 YAP50-100 HTRF combined: EC50
How it was run: as §1

Chain of TEAD3 YAP50-100 (Q99594 173-435 limits assumed): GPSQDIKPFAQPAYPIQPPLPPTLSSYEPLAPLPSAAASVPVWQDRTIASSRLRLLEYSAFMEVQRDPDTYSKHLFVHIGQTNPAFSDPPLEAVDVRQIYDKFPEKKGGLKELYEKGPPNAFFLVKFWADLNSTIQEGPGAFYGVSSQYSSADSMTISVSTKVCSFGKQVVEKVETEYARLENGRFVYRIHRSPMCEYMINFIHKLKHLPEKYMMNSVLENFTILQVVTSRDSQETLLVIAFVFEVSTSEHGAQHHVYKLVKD
Chain of TEAD3 TAZ (amino acids 13-57) (Q99594 173-435 limits assumed): as above
Chain of TEAD1 YAP50-100 (P28347 167-426 limits assumed): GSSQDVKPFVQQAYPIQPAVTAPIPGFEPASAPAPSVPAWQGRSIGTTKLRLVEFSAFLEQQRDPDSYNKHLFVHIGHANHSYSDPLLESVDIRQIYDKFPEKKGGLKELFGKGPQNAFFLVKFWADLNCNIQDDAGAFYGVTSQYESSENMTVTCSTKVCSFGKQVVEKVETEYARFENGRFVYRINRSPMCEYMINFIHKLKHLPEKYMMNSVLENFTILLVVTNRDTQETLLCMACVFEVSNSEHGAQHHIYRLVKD
Chain of TEAD1 TAZ (amino acids 13-57) (P28347 167-426 limits assumed): as above
Chain of TEAD4 YAP50-100 (Q15561 217-434 limits assumed): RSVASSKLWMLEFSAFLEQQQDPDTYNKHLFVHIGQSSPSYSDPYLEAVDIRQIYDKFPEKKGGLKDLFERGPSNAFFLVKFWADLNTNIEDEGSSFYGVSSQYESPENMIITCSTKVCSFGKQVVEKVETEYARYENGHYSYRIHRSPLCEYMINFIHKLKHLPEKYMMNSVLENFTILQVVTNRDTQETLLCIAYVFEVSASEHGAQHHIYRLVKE
Chain of TEAD4 TAZ (amino acids 13-57) (Q15561 217-434 limits assumed): as above
Chain of TEAD2 YAP50-100 (Q15562 217-447): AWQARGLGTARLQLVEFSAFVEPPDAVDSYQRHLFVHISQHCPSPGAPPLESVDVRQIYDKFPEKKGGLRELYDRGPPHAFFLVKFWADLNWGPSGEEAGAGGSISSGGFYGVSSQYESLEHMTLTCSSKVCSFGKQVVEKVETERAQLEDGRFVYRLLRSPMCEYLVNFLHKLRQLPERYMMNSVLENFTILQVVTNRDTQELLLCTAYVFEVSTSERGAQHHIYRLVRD
Chain of TEAD2 TAZ (amino acids 13-57) (Q15562 217-447): as above

C[C@@H]1[C@H](CF)CN1C(=O)c1c(C(=O)N(C)C)nn2c(=O)cc(-c3ccc(C4CCCCC4)cc3)[nH]c12 [Compound 6, 5-(4-Cyclohexylphenyl)-3-((2R,3R)-3-(fluoromethyl)-2-methylazetidine-1-carbonyl)-N,N-dimethyl-7-oxo-4,7-dihydropyrazolo[1,5-a]pyrimidine-2-carboxamide]
TEAD4 YAP50-100 HTRF combined: Max % Inhibition [1]: 17.0%
EC50 [1]: 19500 nM
TEAD1 TAZ HTRF combined: Max % Inhibition [2]: 70.5%
EC50 [2]: 520 nM
TEAD3 TAZ HTRF combined: Max % Inhibition [3]: 64.5%
EC50 [3]: 6000 nM
TEAD1 YAP50-100 HTRF combined: Max % Inhibition [4]: 73.0%
EC50 [4]: 410 nM
TEAD2 TAZ HTRF combined: Max % Inhibition [5]: 67.5%
EC50 [5]: 710 nM
TEAD4 TAZ HTRF combined: Max % Inhibition [6]: 14.0%
EC50 [6]: 35500 nM
TEAD3 YAP50-100 HTRF combined: Max % Inhibition [7]: 71.5%
EC50 [7]: 4950 nM
TEAD2 YAP50-100 HTRF combined: Max % Inhibition [8]: 69.5%
EC50 [8]: 710 nM

O=C(c1c(-c2nccnc2C(F)(F)F)nn2c(=O)cc(-c3ccc(C4CCCCC4)cc3)[nH]c12)N1CC(CF)C1 [Compound 7, 5-(4-Cyclohexylphenyl)-3-(3-(fluoromethyl)azetidine-1-carbonyl)-2-(3-(trifluoromethyl)pyrazin-2-yl)pyrazolo[1,5-a]pyrimidin-7(4H)-one]
TEAD4 YAP50-100 HTRF combined: Max % Inhibition [1]: 54.0%
EC50 [1]: 260 nM
TEAD1 TAZ HTRF combined: Max % Inhibition [2]: 74.0%
EC50 [2]: 200 nM
TEAD3 TAZ HTRF combined: Max % Inhibition [3]: 61.0%
EC50 [3]: 320 nM
TEAD1 YAP50-100 HTRF combined: Max % Inhibition [4]: 78.0%
EC50 [4]: 200 nM
TEAD2 TAZ HTRF combined: Max % Inhibition [5]: 67.0%
EC50 [5]: 30 nM
TEAD4 TAZ HTRF combined: Max % Inhibition [6]: 50.0%
EC50 [6]: 160 nM
TEAD3 YAP50-100 HTRF combined: Max % Inhibition [7]: 71.0%
EC50 [7]: 350 nM
TEAD2 YAP50-100 HTRF combined: Max % Inhibition [8]: 61.0%
EC50 [8]: 40 nM

N#Cc1nccnc1-c1nn2c(=O)cc(-c3ccc(C4CCCCC4)cc3)[nH]c2c1C(=O)N1CC(CF)C1 [Compound 8, 3-(5-(4-Cyclohexylphenyl)-3-(3-(fluoromethyl)azetidine-1-carbonyl)-7-oxo-4,7-dihydropyrazolo[1,5-a]pyimidin-2-yl)pyrazine-2-carbonitrile]
TEAD4 YAP50-100 HTRF combined: Max % Inhibition [1]: 45.5%
EC50 [1]: 470 nM
TEAD1 TAZ HTRF combined: Max % Inhibition [2]: 71.0%
EC50 [2]: 110 nM
TEAD3 TAZ HTRF combined: Max % Inhibition [3]: 61.0%
EC50 [3]: 120 nM
TEAD1 YAP50-100 HTRF combined: Max % Inhibition [4]: 77.0%
EC50 [4]: 80 nM
TEAD2 TAZ HTRF combined: Max % Inhibition [5]: 54.0%
EC50 [5]: 20 nM
TEAD4 TAZ HTRF combined: Max % Inhibition [6]: 44.5%
EC50 [6]: 370 nM
TEAD3 YAP50-100 HTRF combined: Max % Inhibition [7]: 69.5%
EC50 [7]: 110 nM
TEAD2 YAP50-100 HTRF combined: Max % Inhibition [8]: 51.0%
EC50 [8]: 20 nM

Cc1ccnc(-c2nn3c(=O)cc(-c4ccc(C5CCCCC5)cc4)[nH]c3c2C(=O)N2CC(CF)C2)n1 [Compound 9, 5-(4-Cyclohexylphenyl)-3-(3-(fluoromethyl)azetidine-1-carbonyl)-2-(4-methylpyrimidin-2-yl)pyrazolo[1,5-a]pyrimidin-7(4H)-one]
TEAD4 YAP50-100 HTRF combined: Max % Inhibition [1]: 52.0%
EC50 [1]: 30 nM
TEAD1 TAZ HTRF combined: Max % Inhibition [2]: 69.5%
EC50 [2]: 40 nM
TEAD3 TAZ HTRF combined: Max % Inhibition [3]: 52.5%
EC50 [3]: 90 nM
TEAD1 YAP50-100 HTRF combined: Max % Inhibition [4]: 71.0%
EC50 [4]: 30 nM
TEAD2 TAZ HTRF combined: Max % Inhibition [5]: 63.0%
EC50 [5]: 10 nM
TEAD4 TAZ HTRF combined: Max % Inhibition [6]: 56.0%
EC50 [6]: 30 nM
TEAD3 YAP50-100 HTRF combined: Max % Inhibition [7]: 62.0%
EC50 [7]: 80 nM
TEAD2 YAP50-100 HTRF combined: Max % Inhibition [8]: 62.0%
EC50 [8]: 10 nM

CC(C)c1ccnc(-c2nn3c(=O)cc(-c4ccc(C5CCCCC5)cc4)[nH]c3c2C(=O)N2CC(CF)C2)n1 [Compound 10, 5-(4-Cyclohexylphenyl)-3-(3-(fluoromethyl)azetidine-1-carbonyl)-2-(4-isopropylpyrimidin-2-yl)pyrazolo[1,5-a]pyrimidin-7(4H)-one]
TEAD4 YAP50-100 HTRF combined: Max % Inhibition [1]: 60.5%
EC50 [1]: 670 nM
TEAD1 TAZ HTRF combined: Max % Inhibition [2]: 72.0%
EC50 [2]: 60 nM
TEAD3 TAZ HTRF combined: Max % Inhibition [3]: 61.5%
EC50 [3]: 140 nM
TEAD1 YAP50-100 HTRF combined: Max % Inhibition [4]: 77.0%
EC50 [4]: 60 nM
TEAD2 TAZ HTRF combined: Max % Inhibition [5]: 65.0%
EC50 [5]: 10 nM
TEAD4 TAZ HTRF combined: Max % Inhibition [6]: 62.0%
EC50 [6]: 540 nM
TEAD3 YAP50-100 HTRF combined: Max % Inhibition [7]: 70.5%
EC50 [7]: 120 nM
TEAD2 YAP50-100 HTRF combined: Max % Inhibition [8]: 67.0%
EC50 [8]: 10 nM

O=C(c1c(-c2nccc(C(F)(F)F)n2)nn2c(=O)cc(-c3ccc(C4CCCCC4)cc3)[nH]c12)N1CC(CF)C1 [Compound 11, 5-(4-Cyclohexylphenyl)-3-(3-(fluoromethyl)azetidine-1-carbonyl)-2-(4-(trifluoromethyl)pyrimidin-2-yl)pyrazolo[1,5-a]pyrimidin-7(4H)-one]
TEAD4 YAP50-100 HTRF combined: Max % Inhibition [1]: 48.0%
EC50 [1]: 1050 nM
TEAD1 TAZ HTRF combined: Max % Inhibition [2]: 69.0%
EC50 [2]: 70 nM
TEAD3 TAZ HTRF combined: Max % Inhibition [3]: 61.0%
EC50 [3]: 120 nM
TEAD1 YAP50-100 HTRF combined: Max % Inhibition [4]: 74.0%
EC50 [4]: 70 nM
TEAD2 TAZ HTRF combined: Max % Inhibition [5]: 63.0%
EC50 [5]: 20 nM
TEAD4 TAZ HTRF combined: Max % Inhibition [6]: 48.5%
EC50 [6]: 860 nM
TEAD3 YAP50-100 HTRF combined: Max % Inhibition [7]: 68.5%
EC50 [7]: 120 nM
TEAD2 YAP50-100 HTRF combined: Max % Inhibition [8]: 63.5%
EC50 [8]: 20 nM

CCc1ccnc(-c2nn3c(=O)cc(-c4ccc(C5CCCCC5)cc4)[nH]c3c2C(=O)N2CC(CF)C2)n1 [Compound 12, 5-(4-Cyclohexylphenyl)-2-(4-ethylpyrimidin-2-yl)-3-(3-(fluoromethyl)azetidine-1-carbonyl)pyrazolo[1,5-a]pyrimidin-7(4H)-one]
TEAD4 YAP50-100 HTRF combined: Max % Inhibition [1]: 55.0%
EC50 [1]: 200 nM
TEAD1 TAZ HTRF combined: Max % Inhibition [2]: 67.5%
EC50 [2]: 110 nM
TEAD3 TAZ HTRF combined: Max % Inhibition [3]: 56.0%
EC50 [3]: 240 nM
TEAD1 YAP50-100 HTRF combined: Max % Inhibition [4]: 72.0%
EC50 [4]: 140 nM
TEAD2 TAZ HTRF combined: Max % Inhibition [5]: 64.5%
EC50 [5]: 20 nM
TEAD4 TAZ HTRF combined: Max % Inhibition [6]: 58.0%
EC50 [6]: 180 nM
TEAD3 YAP50-100 HTRF combined: Max % Inhibition [7]: 66.0%
EC50 [7]: 190 nM
TEAD2 YAP50-100 HTRF combined: Max % Inhibition [8]: 69.0%
EC50 [8]: 20 nM
